ChEMBL document CHEMBL1140726, “Discovery and biological evaluation of 5-aryl-2-furfuramides, potent and selective blockers of the Nav1.8 sodium channel with efficacy in models of neuropathic and inflammatory pain” (J Med Chem, 2008)

Key:
[1] = biological target: Sodium channel protein type 10 subunit alpha (Mus musculus, UniProt Q6QIY3); test: Inhibition of mouse recombinant Nav 1.8 channel expressed in HEK293 cells by isotopic efflux assay; type: cell-based
[2] = biological target: T1, Nav1.5 (sodium channel protein type 5 subunit alpha) (Homo sapiens, UniProt Q14524); test: Inhibition of human Nav1.5 channel at 0.1 uM
[3] = Activity at rat dorsal root ganglion in resting state with prepulse voltage of -100 mV assessed as blockade of TTx-resistant sodium current at 0.3 uM by whole-cell patch clamp technique; type: functional
[4] = biological target: T2, Sodium channel protein type 10 subunit alpha (Homo sapiens, UniProt Q9Y5Y9); test: Inhibition of human recombinant Nav 1.8 channel expressed in HEK293 cells at 0.003 uM; type: cell-based
[5] = biological target: Sodium channel protein type 2 subunit alpha (Homo sapiens) (UniProt Q99250); test: Inhibition of human Nav1.2 channel at 1 uM
[6] = biological target: T2, Sodium channel protein type 10 subunit alpha; test: Activity at human recombinant Nav 1.8 channel expressed in HEK293 cells in resting state with prepulse voltage of -100 mV assessed as blockade of TTx-resistant sodium current at 0.003 uM; type: cell-based
[7] = biological target: T2, Sodium channel protein type 10 subunit alpha; test: Activity at human recombinant Nav 1.8 channel expressed in HEK293 cells in resting state with prepulse voltage of -100 mV assessed as blockade of TTx-resistant sodium current at 0.001 uM; type: cell-based
[8] = biological target: T1, Nav1.5 (sodium channel protein type 5 subunit alpha); test: Inhibition of human Nav1.5 channel at 1 uM; conditions: human
[9] = biological target: T2, Sodium channel protein type 10 subunit alpha; test: Activity at human recombinant Nav 1.8 channel expressed in HEK293 cells in inactivated state with prepulse voltage of -40 mV assessed as blockade of TTx-resistant sodium current at 0.003 uM; type: cell-based
[10] = Activity at rat dorsal root ganglion in inactivated state with prepulse voltage of -40 mV assessed as blockade of TTx-resistant sodium current at 0.3 uM by whole-cell patch clamp technique; type: functional
[11] = biological target: Sodium channel protein type 2 subunit alpha (Homo sapiens) (UniProt Q99250); test: Inhibition of human Nav1.2 channel at 0.1 uM
[12] = Activity at rat dorsal root ganglion in inactivated state with prepulse voltage of -40 mV assessed as blockade of TTx-resistant sodium current at 0.1 uM by whole-cell patch clamp technique; type: functional
[13] = biological target: T2, Sodium channel protein type 10 subunit alpha; test: Activity at human recombinant Nav 1.8 channel expressed in HEK293 cells in inactivated state with prepulse voltage of -40 mV assessed as blockade of TTx-resistant sodium current at 0.001 uM; type: cell-based
[14] = biological target: Voltage-gated inwardly rectifying potassium channel KCNH2 (Homo sapiens, UniProt Q12809); test: Inhibition of hERG potassium channel expressed in CHO cells by isotope efflux assay
[15] = Activity at rat dorsal root ganglion in resting state with prepulse voltage of -100 mV assessed as blockade of TTx-resistant sodium current at 0.1 uM by whole-cell patch clamp technique; type: functional
[16] = biological target: T2, Sodium channel protein type 10 subunit alpha; test: Activity at human recombinant Nav 1.8 channel expressed in HEK293 cells in resting state with prepulse voltage of -100 mV assessed as blockade of TTx-resistant sodium current at 3 uM; type: cell-based
[17] = biological target: T2, Sodium channel protein type 10 subunit alpha; test: Activity at human recombinant Nav 1.8 channel expressed in HEK293 cells in resting state with prepulse voltage of -100 mV assessed as blockade of TTx-resistant sodium current at 1 uM; type: cell-based
[18] = Activity at rat dorsal root ganglion in resting state with prepulse voltage of -100 mV assessed as blockade of TTx-resistant sodium current at 10 uM by whole-cell patch clamp technique; type: functional
[19] = biological target: Sodium channel protein type 3 subunit alpha (Homo sapiens) (UniProt Q9NY46); test: Inhibition of human Nav1.3 channel at 1 uM
[20] = biological target: T2, Sodium channel protein type 10 subunit alpha; test: Inhibition of human recombinant Nav 1.8 channel expressed in HEK293 cells at 3 uM; type: cell-based
[21] = biological target: T2, Sodium channel protein type 10 subunit alpha; test: Activity at human recombinant Nav 1.8 channel expressed in HEK293 cells in inactivated state with prepulse voltage of -40 mV assessed as blockade of TTx-resistant sodium current at 3 uM; type: cell-based
[22] = Activity at rat dorsal root ganglion in inactivated state with prepulse voltage of -40 mV assessed as blockade of TTx-resistant sodium current at 1 uM by whole-cell patch clamp technique; type: functional
[23] = biological target: T2, Sodium channel protein type 10 subunit alpha; test: Activity at human recombinant Nav 1.8 channel expressed in HEK293 cells in inactivated state with prepulse voltage of -40 mV assessed as blockade of TTx-resistant sodium current at 1 uM; type: cell-based
[24] = biological target: T2, Sodium channel protein type 10 subunit alpha; test: Inhibition of human recombinant Nav 1.8 channel expressed in HEK293 cells at 1 uM; type: cell-based
[25] = Activity at rat dorsal root ganglion in resting state with prepulse voltage of -100 mV assessed as blockade of TTx-resistant sodium current at 1 uM by whole-cell patch clamp technique; type: functional
[26] = Activity at rat dorsal root ganglion in inactivated state with prepulse voltage of -40 mV assessed as blockade of TTx-resistant sodium current at 10 uM by whole-cell patch clamp technique; type: functional

T1 sequence (Q14524 whole entry): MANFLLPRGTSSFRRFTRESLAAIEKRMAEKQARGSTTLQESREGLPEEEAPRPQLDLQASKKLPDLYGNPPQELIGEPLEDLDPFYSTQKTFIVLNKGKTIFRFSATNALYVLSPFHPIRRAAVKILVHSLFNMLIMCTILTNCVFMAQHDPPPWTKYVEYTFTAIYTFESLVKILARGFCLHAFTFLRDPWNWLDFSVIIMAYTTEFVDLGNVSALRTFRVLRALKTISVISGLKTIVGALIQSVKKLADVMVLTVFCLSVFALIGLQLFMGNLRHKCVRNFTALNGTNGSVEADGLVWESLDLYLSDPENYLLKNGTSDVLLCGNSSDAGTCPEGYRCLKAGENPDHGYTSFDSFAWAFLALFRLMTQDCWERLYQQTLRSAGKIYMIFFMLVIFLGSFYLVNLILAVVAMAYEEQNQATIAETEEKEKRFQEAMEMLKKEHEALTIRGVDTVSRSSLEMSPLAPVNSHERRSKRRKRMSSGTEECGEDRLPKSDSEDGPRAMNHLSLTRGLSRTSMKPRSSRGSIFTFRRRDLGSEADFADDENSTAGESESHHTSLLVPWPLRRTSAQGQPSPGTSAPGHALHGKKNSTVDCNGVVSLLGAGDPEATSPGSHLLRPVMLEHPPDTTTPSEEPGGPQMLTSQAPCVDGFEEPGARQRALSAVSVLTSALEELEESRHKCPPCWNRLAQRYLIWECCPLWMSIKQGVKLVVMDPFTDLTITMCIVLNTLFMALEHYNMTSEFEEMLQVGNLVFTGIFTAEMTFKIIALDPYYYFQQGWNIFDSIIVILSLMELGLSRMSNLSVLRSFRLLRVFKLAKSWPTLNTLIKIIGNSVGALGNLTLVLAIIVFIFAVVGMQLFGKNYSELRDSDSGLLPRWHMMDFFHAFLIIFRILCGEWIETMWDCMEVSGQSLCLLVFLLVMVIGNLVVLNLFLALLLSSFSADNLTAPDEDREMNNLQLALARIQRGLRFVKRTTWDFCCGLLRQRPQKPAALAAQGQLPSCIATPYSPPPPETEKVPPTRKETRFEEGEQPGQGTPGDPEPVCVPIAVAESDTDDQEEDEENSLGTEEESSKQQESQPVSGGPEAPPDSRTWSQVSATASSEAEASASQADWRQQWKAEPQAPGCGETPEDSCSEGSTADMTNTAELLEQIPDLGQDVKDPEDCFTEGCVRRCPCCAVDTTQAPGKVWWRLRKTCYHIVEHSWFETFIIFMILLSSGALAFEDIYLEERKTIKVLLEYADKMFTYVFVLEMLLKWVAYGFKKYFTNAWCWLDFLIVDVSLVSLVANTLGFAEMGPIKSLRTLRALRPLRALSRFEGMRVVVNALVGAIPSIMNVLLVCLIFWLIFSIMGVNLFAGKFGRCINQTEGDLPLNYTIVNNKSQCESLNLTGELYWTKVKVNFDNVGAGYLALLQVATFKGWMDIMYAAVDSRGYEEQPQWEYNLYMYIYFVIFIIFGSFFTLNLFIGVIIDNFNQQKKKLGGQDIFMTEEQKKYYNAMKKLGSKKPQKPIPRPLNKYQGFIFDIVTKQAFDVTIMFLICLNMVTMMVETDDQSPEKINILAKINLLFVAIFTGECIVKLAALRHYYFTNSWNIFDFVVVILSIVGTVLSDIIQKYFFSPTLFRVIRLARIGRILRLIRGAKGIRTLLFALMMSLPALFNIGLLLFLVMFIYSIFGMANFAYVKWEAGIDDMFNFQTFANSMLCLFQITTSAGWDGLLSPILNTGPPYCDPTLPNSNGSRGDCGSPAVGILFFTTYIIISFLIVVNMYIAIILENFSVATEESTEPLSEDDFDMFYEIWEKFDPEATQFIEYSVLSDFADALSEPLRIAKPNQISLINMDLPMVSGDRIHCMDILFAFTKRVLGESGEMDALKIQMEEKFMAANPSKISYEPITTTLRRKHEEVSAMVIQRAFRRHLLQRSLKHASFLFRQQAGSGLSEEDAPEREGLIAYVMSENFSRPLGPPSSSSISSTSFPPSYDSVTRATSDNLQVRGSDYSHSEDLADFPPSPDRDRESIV
Sodium channel protein type 2 subunit alpha (Homo sapiens), sequence (Q99250 whole entry, looked up): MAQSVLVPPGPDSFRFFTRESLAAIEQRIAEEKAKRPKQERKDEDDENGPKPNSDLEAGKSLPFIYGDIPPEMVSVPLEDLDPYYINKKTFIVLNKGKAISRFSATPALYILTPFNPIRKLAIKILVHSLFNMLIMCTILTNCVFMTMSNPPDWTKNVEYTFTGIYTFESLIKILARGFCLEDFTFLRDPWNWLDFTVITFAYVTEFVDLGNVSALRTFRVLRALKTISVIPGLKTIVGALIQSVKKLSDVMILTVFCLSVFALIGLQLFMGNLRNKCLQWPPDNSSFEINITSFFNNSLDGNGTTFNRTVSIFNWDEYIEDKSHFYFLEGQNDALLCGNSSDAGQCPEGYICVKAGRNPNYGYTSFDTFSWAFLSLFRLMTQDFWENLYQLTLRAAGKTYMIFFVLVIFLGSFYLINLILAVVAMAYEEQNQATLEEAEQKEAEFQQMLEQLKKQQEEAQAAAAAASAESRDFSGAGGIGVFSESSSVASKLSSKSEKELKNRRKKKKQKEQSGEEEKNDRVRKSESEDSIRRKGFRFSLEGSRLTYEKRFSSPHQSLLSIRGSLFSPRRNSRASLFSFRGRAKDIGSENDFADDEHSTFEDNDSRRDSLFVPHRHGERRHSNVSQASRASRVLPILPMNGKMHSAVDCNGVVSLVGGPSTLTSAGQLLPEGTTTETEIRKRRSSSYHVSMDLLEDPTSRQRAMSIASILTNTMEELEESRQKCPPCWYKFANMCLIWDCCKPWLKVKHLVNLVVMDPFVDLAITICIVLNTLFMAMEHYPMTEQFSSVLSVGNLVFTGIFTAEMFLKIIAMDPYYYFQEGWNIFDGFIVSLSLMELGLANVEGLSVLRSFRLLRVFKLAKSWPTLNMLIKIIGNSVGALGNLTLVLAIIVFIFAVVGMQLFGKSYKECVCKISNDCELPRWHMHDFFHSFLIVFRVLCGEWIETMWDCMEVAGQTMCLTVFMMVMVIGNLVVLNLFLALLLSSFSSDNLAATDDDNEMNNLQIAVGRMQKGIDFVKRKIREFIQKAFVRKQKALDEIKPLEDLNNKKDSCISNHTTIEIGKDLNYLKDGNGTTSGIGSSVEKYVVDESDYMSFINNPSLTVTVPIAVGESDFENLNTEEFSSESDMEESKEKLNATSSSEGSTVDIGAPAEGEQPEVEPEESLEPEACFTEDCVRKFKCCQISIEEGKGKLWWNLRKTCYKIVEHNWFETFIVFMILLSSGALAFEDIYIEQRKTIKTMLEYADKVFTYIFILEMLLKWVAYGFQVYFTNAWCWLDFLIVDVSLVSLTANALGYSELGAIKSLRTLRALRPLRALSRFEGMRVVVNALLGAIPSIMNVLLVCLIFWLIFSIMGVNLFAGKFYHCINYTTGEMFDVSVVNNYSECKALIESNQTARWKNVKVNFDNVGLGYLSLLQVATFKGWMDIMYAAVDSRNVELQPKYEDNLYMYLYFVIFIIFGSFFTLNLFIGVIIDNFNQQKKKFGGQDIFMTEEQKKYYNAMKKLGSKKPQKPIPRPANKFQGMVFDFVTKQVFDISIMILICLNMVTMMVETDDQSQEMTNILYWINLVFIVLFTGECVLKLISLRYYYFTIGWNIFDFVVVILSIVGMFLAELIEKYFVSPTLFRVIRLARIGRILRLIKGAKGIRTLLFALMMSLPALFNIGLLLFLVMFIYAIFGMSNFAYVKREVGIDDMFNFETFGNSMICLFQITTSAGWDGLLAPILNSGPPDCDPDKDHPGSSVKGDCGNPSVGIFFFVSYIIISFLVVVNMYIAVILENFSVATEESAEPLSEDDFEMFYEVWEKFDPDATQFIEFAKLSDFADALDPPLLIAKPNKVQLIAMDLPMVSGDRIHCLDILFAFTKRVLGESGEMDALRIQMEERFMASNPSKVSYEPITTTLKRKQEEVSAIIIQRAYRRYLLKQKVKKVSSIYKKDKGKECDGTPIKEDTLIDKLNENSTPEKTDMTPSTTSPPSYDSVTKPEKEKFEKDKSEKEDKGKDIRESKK
Voltage-gated inwardly rectifying potassium channel KCNH2, sequence (Q12809 whole entry): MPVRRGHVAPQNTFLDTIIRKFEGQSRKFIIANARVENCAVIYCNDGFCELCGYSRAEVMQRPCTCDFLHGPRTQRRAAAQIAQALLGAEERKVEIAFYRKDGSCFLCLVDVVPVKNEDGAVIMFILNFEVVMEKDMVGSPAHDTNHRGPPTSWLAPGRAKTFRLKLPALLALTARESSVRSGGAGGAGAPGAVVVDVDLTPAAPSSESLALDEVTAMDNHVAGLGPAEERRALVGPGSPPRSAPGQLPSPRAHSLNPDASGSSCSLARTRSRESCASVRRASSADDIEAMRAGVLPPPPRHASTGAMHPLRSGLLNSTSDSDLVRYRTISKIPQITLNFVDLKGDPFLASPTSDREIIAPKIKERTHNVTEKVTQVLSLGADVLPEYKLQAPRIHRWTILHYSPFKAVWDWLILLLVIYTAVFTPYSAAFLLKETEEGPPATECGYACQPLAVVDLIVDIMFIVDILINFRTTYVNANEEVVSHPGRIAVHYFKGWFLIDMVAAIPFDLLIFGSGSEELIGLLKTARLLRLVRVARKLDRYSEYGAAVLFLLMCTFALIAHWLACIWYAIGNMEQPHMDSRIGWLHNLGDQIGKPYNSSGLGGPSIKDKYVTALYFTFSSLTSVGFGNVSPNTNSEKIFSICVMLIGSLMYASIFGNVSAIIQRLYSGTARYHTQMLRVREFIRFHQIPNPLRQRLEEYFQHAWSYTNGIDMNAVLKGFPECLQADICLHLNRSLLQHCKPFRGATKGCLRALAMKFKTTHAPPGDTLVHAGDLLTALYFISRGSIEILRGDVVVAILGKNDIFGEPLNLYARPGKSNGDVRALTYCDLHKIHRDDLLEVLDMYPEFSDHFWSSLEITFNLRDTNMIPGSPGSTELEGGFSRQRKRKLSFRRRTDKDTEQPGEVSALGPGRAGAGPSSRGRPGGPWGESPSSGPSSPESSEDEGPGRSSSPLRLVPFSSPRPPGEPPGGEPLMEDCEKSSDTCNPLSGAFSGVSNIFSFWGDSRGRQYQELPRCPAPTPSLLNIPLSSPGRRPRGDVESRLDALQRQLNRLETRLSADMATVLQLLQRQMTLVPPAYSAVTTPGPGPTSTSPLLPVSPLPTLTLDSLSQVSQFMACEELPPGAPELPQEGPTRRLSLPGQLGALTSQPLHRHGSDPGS

Cc1cc(NC(=O)c2ccc(-c3ccc(Cl)cc3)o2)ccn1
IC50 [1]: 2.5 µM

CN1CCc2ccc(NC(=O)c3ccc(-c4ccc(Cl)cc4)o3)cc21
IC50 [1]: 4.6 µM

Cc1cccc(NC(=O)c2cc(-c3ccc(Cl)cc3)co2)c1
IC50 [1]: 5.3 µM

Cc1cccc(NC(=O)c2ccc(-c3ccc(OC(F)(F)F)cc3)o2)c1
inhibition at 0.1 µM [2]: 52% | inhibition at 0.3 µM [3]: 30% | IC50 [1]: 0.29 µM | inhibition [4]: 73% | inhibition [5]: 84% | inhibition [6]: 33% | inhibition [7]: 7% | inhibition at 1 µM [8]: 87% | inhibition [9]: 73% | inhibition at 0.3 µM [10]: 63% | inhibition [11]: 47% | inhibition at 0.1 µM [12]: 40% | inhibition [13]: 40% | IC50 [14]: > 30 µM | inhibition at 0.1 µM [15]: 25%

O=C(c1ccc(-c2ccc(Cl)cc2)o1)N1CCOCC1
IC50 [1]: > 30 µM

Cc1ccnc(NC(=O)c2ccc(-c3ccc(Cl)cc3)o2)c1
inhibition [16]: 83% | IC50 [1]: 0.96 µM | inhibition [5]: 12% | inhibition [17]: 58% | inhibition at 10 µM [18]: 88% | inhibition [19]: 5% | inhibition [20]: 81% | inhibition at 1 µM [8]: 24% | inhibition [21]: 81% | inhibition at 1 µM [22]: 36% | inhibition [23]: 42% | inhibition [24]: 42% | inhibition at 1 µM [25]: 9% | IC50 [14]: > 30 µM | inhibition at 10 µM [26]: 88%

Cc1cccc(NC(=O)c2coc(-c3ccc(Cl)cc3)c2)c1
IC50 [1]: 20 µM

CCOc1ccc(-c2ccc(C(=O)Nc3cccc(C)c3)o2)cc1
IC50 [1]: 0.43 µM

O=C(Nc1ccc2cc[nH]c2c1)c1ccc(-c2ccc(Cl)cc2)o1
IC50 [1]: 3.1 µM

O=C(Nc1ccc2ncccc2c1)c1ccc(-c2ccc(Cl)cc2)o1
IC50 [1]: 10 µM

O=C(NCCc1ccccc1Cl)c1ccc(-c2ccc(Cl)cc2)o1
IC50 [1]: 1.9 µM

Cc1cccc(N(C)C(=O)c2ccc(-c3ccc(Cl)cc3)o2)c1
IC50 [1]: 3.4 µM
